# What was measured:
# [1] = slurry stability experiments (solid form by PXRD); assay type: physicochemical; conditions: for Final Form: slurry in 2-propanol/water, Aw 0.9
# Protocol: Slurry experiments were conducted as follows. The indicated starting form of PF-07104091 was transferred to a 2 mL vial. The indicated solvent or solvent mixture was added to obtain a slurry at the specified temperature (Table 14). Additional solids were added as necessary to ensure a sufficiently thick slurry. A magnetic stir bar was added and the vial was tightly capped to prevent solvent loss. The resulting slurry was left to stir at the specified temperature. Aliquots were pulled from the slurry periodically or after a certain duration. Solids were separated from the liquid by centrifuge filtration and the solids were characterized by powder x-ray diffraction. […] (ambient), and 40° C.
# [2] = moisture sorption (DVS) study; assay type: physicochemical
compound,measurement,setting,value
"COCc1cc(C(=O)Nc2cc([C@H]3CC[C@@H](OC(=O)NC(C)C)C3)[nH]n2)n(C)n1 [Form 1, (1R,3S)-3-[3-({[3-(methoxymethyl)-1-methyl-1H-pyrazol-5-yl]carbonyl}amino)-1H-pyrazol-5-yl]cyclopentyl propan-2-ylcarbamate]",Final Form,[1]; 4 °C,Form 3
same,Final Form,[1]; ambient,Form 3
"COCc1cc(C(=O)Nc2cc([C@H]3CC[C@@H](OC(=O)NC(C)C)C3)[nH]n2)n(C)n1 [PF-07104091 (Form 2), (1R,3S)-3-[3-({[3-(methoxymethyl)-1-methyl-1H-pyrazol-5-yl]carbonyl}amino)-1H-pyrazol-5-yl]cyclopentyl propan-2-ylcarbamate]",solid form of the post moisture sorption material,[2]; PXRD after DVS,no change in solid form
same,mass gain,[2]; at 60% RH,~0.7%
same,mass gain,[2]; at 75% RH,~1%
same,mass gain,[2]; at 90% RH,~1.6%
same,hygroscopicity,[2]; moisture sorption (DVS),slightly hygroscopic
"COCc1cc(C(=O)Nc2cc([C@H]3CC[C@@H](OC(=O)NC(C)C)C3)[nH]n2)n(C)n1 [PF-07104091 monohydrate (Form 3), (1R,3S)-3-[3-({[3-(methoxymethyl)-1-methyl-1H-pyrazol-5-yl]carbonyl}amino)-1H-pyrazol-5-yl]cyclopentyl propan-2-ylcarbamate]",thermodynamic stability of the solid form,"[1]; at 4° C., ˜25° C. (ambient), and 40° C.",thermodynamically most stable form

# From patent US20240076287A1, “SOLID FORMS OF A CDK2 INHIBITOR” (PFIZER INC., priority 2020, published 2024)
